Reference: article PMC8624133, “10th Trends in Medical Mycology Held on 8 to 11 October 2021, Aberdeen, Scotland, Organized by the European Confederation of Medical Mycology (ECMM)” (Journal of Fungi, 2021)
Values after ≈ are worked out from the molar mass of the structure shown. Like-named read-outs stand apart in the source and are kept apart here.

Key:
[1] = test system: C. auris clinical strains; test: organism not typed; assay type: cell-based, Candida auris; conditions: range, 78 strains from patients with COVID-19
[2] = test system: Candida sp. and other yeast isolates, planktonic; test: MIC of catheter yeast isolates, planktonic form; assay type: cell-based; conditions: range; read-out: MIC
[3] = test system: sessile cells of yeast mono and dual-species biofilms; test: MIC of catheter yeast isolates, mono and dual-species biofilms; assay type: cell-based; conditions: range
[4] = test system: Candida auris isolates; test: microbe, parasite or virus in culture; assay type: cell-based
[5] = test system: Candida auris isolates; test: Disc diffusion, Oxoid discs; assay type: cell-based
[6] = test system: environmental yeasts from a lagoon; test: organism not typed; assay type: cell-based
[7] = test system: Exophiala phaeomuriformis; test: MIC, CLSI M27-A3; assay type: cell-based; conditions: read-out: MIC values
Description: Materials & Methods: The aviation kerosone samples came from an aviation company in Porto Alegre, state of Rio Grande do Sul, Brazil. The fungi isolation was carried out using the modified ASTM D6974-09 Standard. In this procedure, 500 mL kerosene samples were filtered, in triplicate, under aseptic conditions, under vacuum, using a 0.22 μm membrane (Millipore). After filtering, the membranes were deposited in potato dextrose agar culture medium. The plates were incubated in an oven at 30 °C for seven days. After this period, the colonies were isolated in new culture media for purification of the isolates. Molecular identification was performed through the sequencing of ITS DNA regions. The profile of sensitivity to clinical antifungals was assessed following protocols M27-A3 of the Clinical and Laboratory Standards Institute (CLSI).

[8] = test system: C. albicans; test: Candidemia Netherlands, MIC distributions against EUCAST ECOFF; assay type: cell-based, Candida albicans
[9] = test system: C. glabrata; test: as above; assay type: cell-based, Candida glabrata
[10] = test system: F. verticillioides; test: Etest susceptibility; assay type: cell-based, Fusarium verticillioides
[11] = test system: invasive C. glabrata strains; test: YeastOne Sensititre colorimetric broth microdilution; assay type: cell-based, Candida glabrata; conditions: Nakaseomyces glabratus
Description: Material and Method: Thirty-six clinical isolates of invasive C. glabrata strains were analyzed in this study. Minimum inhibitory concentrations (MICs) were determined using colorimetric broth microdilution (YeastOneSensititre, Trek diagnostics). Genomic DNA was isolated using Qiagen DNA extraction Kit. The FKS1 and FKS2 gene fragment were amplified and PCR products were purified prior to sequencing. Double-strand sequencing of PCR products was performed using Sanger sequencing methodology. Sequences were analyzed with MEGA-6 software to identify specific SNP combination against wild-type sequences of C. glabrata.

[12] = test system: C. albicans; assay type: cell-based, Candida albicans
[13] = test system: C. parapsilosis; assay type: cell-based, Candida parapsilosis
[14] = test system: C. glabrata; assay type: cell-based, Candida glabrata
[15] = test system: C. tropicalis; assay type: cell-based, Candida tropicalis
[16] = test system: C. krusei; assay type: cell-based, Candida krusei
[17] = test system: Other species of Candida; assay type: cell-based, Candida spp.
[18] = test system: Aspergillus tubingensis; test: EUCAST susceptibility; assay type: cell-based
Description: The fungus was identified as Aspergillus niger and liposomal amphotericine B was switched to anidulafungin pending susceptibility testing as the patient had pre-existing […] (eGFR CKD-EPI 40 mL/min/1.73 m²). […] Despite increasing the anidulafungin dosage to 200 mg daily and adequate voriconazol levels, serum galactomannan levels remained elevated (index 2.1 at discharge). […] Since no extracardiac sources were found and the patient did well clinically, they were discharched. Anidulafungin was switched to caspofungin to facilitate ongoing IV treatment in the outpatient setting. […] The patient died shortly after. Obduction was not performed.

[19] = test system: Candida spp. blood isolates; conditions: 2009–2018
Description: Ward of hospitalization at the time of the diagnosis, species identification and in vitro antifungal susceptibility profile (where available) were recorded. Identification of Candida isolates and susceptibility testing were performed as per hospital protocol. Annual incidence rates/100,000 inhabitants were calculated. Chi-square test for trend was used for evaluation of changes in species distribution.

In the case of CC[C@H](C)C[C@H](C)CCCCCCCCC(=O)N[C@H]1C[C@@H](O)[C@@H](NCCN)NC(=O)[C@@H]2[C@@H](O)CCN2C(=O)[C@H]([C@H](O)CCN)NC(=O)[C@H]([C@H](O)[C@@H](O)c2ccc(O)cc2)NC(=O)[C@@H]2C[C@@H](O)CN2C(=O)[C@H]([C@@H](C)O)NC1=O [caspofungin], the MIC [1] was 0.06 to 1 µg/mL (≈ 0.0549 to 0.915 µM), the MIC [2] was 0.06 to 1 µg/mL and the MIC [3] was 0.5 to 16 µg/mL. The “categorised as resistant on MIC” value ([4]; CDC guidelines) was 13.2%, the MIC ([4]; Candidozyma auris, […], IQR given, read-out: median MIC) was 0.12 µg/mL (≈ 0.11 µM) and the “categorised as resistant on ZD” value [5] was “none”. The “median zone diameter (ZD)” value ([5]; 25 µg FLU and 5 µg CAS discs, […]) was 23 mm, the “isolates classified as resistant-like” value ([6]; number of 71 yeasts, MIC at or above Candida breakpoint) was 48 and the MIC ([6]; range, read-out: MIC of resistant-like isolates) was 1 to 128 µg/mL. The MIC [7] was greater than 8 µg/mL, the “isolates within the wildtype distribution range” value [8] was 98.9% and the “isolates within the wildtype distribution range” value [9] was 87.1%. For the same compound, the “minimum inhibitory concentration (MIC), in words” value [10] was “high values”, the MIC ([11]; 36 clinical isolates, read-out: median (Min–Max) MIC) was 0.06 µg/mL and the MIC ([11]; isolate with FKS1 D632H) was 0.25 µg/mL. For the same compound, the MIC ([11]; isolate with FKS2 I661T) was 0.12 µg/mL, the “I (intermediate) isolates, n (%)” value [12] was 0 (0%) and the “R (resistant) isolates, n (%)” value [12] was 0 (0%). The “S (sensitive) isolates, n (%)” value [12] was 138 (100), the “I (intermediate) isolates, n (%)” value [13] was 0 (0%) and the “R (resistant) isolates, n (%)” value [13] was 0 (0%). For the same compound, the “S (sensitive) isolates, n (%)” value [13] was 132 (100%), the “R (resistant) isolates, n (%)” value [14] was 3 (5.5%) and the “S (sensitive) isolates, n (%)” value [14] was 44 (80%). For the same compound, the “I (intermediate) isolates, n (%)” value [15] was 0 (0%), the “R (resistant) isolates, n (%)” value [15] was 0 (0%) and the “S (sensitive) isolates, n (%)” value [15] was 44 (100%). The “I (intermediate) isolates, n (%)” value [16] was 1 (33.3%), the “S (sensitive) isolates, n (%)” value [16] was 2 (66.7%) and the “I (intermediate) isolates, n (%)” value [17] was 0 (0%). The “R (resistant) isolates, n (%)” value [17] was 0 (0%), the “S (sensitive) isolates, n (%)” value [17] was 18 (100%) and the MIC [18] was 60 µg/mL (≈ 54.9 µM).

With Nc1[nH]c(=O)ncc1F [5-flucytosine] the MIC [1] was 0.06 to 0.12 µg/mL (≈ 0.465 to 0.93 µM) and the Resistance [19] was “No resistance”.
